Data from EP2092824A1, “Heterocyclyl pyrimidines” (Bayer CropScience AG, priority 2008, dated 2009).

Assays:
[1] = system: Myzus persicae; assay: Myzus test (MYZUPE spray treatment); format: in vivo; conditions: foliar, Aufwandmenge 500 g/ha, sprayed Chinese cabbage leaf discs (Brassica pekinensis) infested with all stages, 100 % = all aphids killed, read-out: Wirkung
Excerpt: Myzus-Test (MYZUPE Spritzbehandlung)
(§1) Zur Herstellung einer zweckmäßigen Wirkstoffzubereitung vermischt man 1 Gewichtsteil Wirkstoff mit den angegebenen Mengen Lösungsmittel und Emulgator und verdünnt das Konzentrat mit emulgatorhaltigem Wasser auf die gewünschte Konzentration.
Chinakohlblattscheiben (Brassica pekinensis), die von allen Stadien der Grünen Pfirsichblattlaus (Myzus persicae) befallen sind, werden mit einer Wirkstoffzubereitung der gewünschten Konzentration gespritzt.
Nach der gewünschten Zeit wird die Wirkung in % bestimmt. Dabei bedeutet 100 %, dass alle Blattläuse abgetötet wurden; 0 % bedeutet, dass keine Blattläuse abgetötet wurden.

[2] = system: Phaedon cochleariae; assay: Phaedon test (PHAECO spray treatment); format: in vivo; conditions: foliar, Aufwandmenge 500 g/ha, sprayed Chinese cabbage leaf discs, larvae, 100 % = all beetle larvae killed, read-out: Wirkung
Excerpt: Phaedon-Test (PHAECO Spritzbehandlung)
as §1
Chinakohlblattscheiben (Brassica pekinensis) werden mit einer Wirkstoffzubereitung der gewünschten Konzentration gespritzt und nach dem Abtrocknen mit Larven des Meerrettichblattkäfers (Phaedon cochleariae) besetzt.
Nach der gewünschten Zeit wird die Wirkung in % bestimmt. Dabei bedeutet 100 %, dass alle Käferlarven abgetötet wurden; 0 % bedeutet, dass keine Käferlarven abgetötet wurden.

[3] = logP determination by HPLC on reversed-phase column (EEC-Directive 79/831 Annex V.A8); format: physicochemical; conditions: c18 hplc, C 18 reversed phase, 43°C, LC-MS at pH 2,7 (0,1 % aqueous formic acid / acetonitrile)
Protocol: Die Bestimmung der in den Herstellungsbeispielen angegebenen logP-Werte erfolgte gemäß EEC-Directive 79/831 Annex V.A8 durch HPLC (High Performance Liquid Chromatography) an einer Phasenumkehrsäule (C 18). Temperatur: 43°C.
Die Bestimmung erfolgte mit der LC-MS bei pH 2,7 mit 0,1 % wässriger Ameisensäure und Acetonitril (enthält 0,1 % Ameisensäure) als Eluenten; linearer Gradient von 10 % Acetonitril bis 95 % Acetonitril.
Die Eichung erfolgte mit unverzweigten Alkan-2-onen (mit 3 bis 16 Kohlenstoffatomen), deren logP-Werte bekannt sind (Bestimmung der logP-Werte anhand der Retentionszeiten durch lineare Interpolation zwischen zwei aufeinanderfolgenden Alkanonen).

[4] = system: Sphaerotheca fuliginea; assay: Sphaerotheca test (cucumber) / protective; format: in vivo; conditions: Konzentration an Wirkstoff 500ppm, cucumber plants, evaluation 7 days after inoculation, 100 % = no infestation
Excerpt: Sphaerotheca-Test (Gurke) / protektiv
(§2) Zur Herstellung einer zweckmäßigen Wirkstoffzubereitung vermischt man 1 Gewichtsteil Wirkstoff mit den angegebenen Mengen Lösungsmittel und Emulgator und verdünnt das Konzentrat mit Wasser auf die gewünschte Konzentration.
Zur Prüfung auf protektive Wirksamkeit bespritzt man junge Gurkenpflanzen mit der Wirkstoffzubereitung in der angegebenen Aufwandmenge. 1 Tag nach der Behandlung werden die Pflanzen mit einer Sporensuspension von Sphaerotheca fuliginea inokuliert. Anschließend werden die Pflanzen in einem Gewächshaus bei 70 % relativer Luftfeuchtigkeit und einer Temperatur von 23 °C aufgestellt.
7 Tage nach der Inokulation erfolgt die Auswertung. Dabei bedeutet 0 % ein Wirkungsgrad, der demjenigen der Kontrolle entspricht, während ein Wirkungsgrad von 100 % bedeutet, daß kein Befall beobachtet wird.

[5] = system: Puccinia recondita; assay: Puccinia test (wheat) / protective; format: in vivo; conditions: Konzentration an Wirkstoff 500ppm, wheat plants, evaluation 7-9 days after inoculation, 100 % = no infestation
Excerpt: Puccinia-Test (Weizen) / protektiv
as §2
Zur Prüfung auf protektive Wirksamkeit bespritzt man junge Weizenpflanzen mit der Wirkstoffzubereitung in der angegebenen Aufwandmenge. 1 Tag nach der Behandlung werden die Pflanzen mit einer Sporensuspension von Puccinia recondita inokuliert und stehen dann 48h bei 100% rel. Feuchte und 22°C. Anschließend stehen die Pflanzen bei 80% rel. Luftfeuchtigkeit und einer Temperatur von 20 °C.
7-9 Tage nach der Inokulation erfolgt die Auswertung. Dabei bedeutet 0 % ein Wirkungsgrad, der demjenigen der Kontrolle entspricht, während ein Wirkungsgrad von 100 % bedeutet, dass kein Befall beobachtet wird.

[6] = system: Meloidogyne incognita; assay: Meloidogyne test (MELGIN spray treatment); format: in vivo; conditions: Aufwandmenge 4 ppm; nematicidal effect by gall formation on lettuce roots; 100 % = no galls
Excerpt: Meloidogyne-Test (MELGIN Spritzbehandlung)
Zur Herstellung einer zweckmäßigen Wirkstoffzubereitung vermischt man 1 Gewichtsteil Wirkstoff mit der angegebenen Menge Lösungsmittel und verdünnt das Konzentrat mit Wasser auf die gewünschte Konzentration.
Gefäße werden mit Sand, Wirkstofflösung, Meloidogyne incognita-Ei-Larven-Suspension und Salatsamen gefüllt. Die Salatsamen keimen und die Pflänzchen entwickeln sich. An den Wurzeln entwickeln sich die Gallen.
Nach der gewünschten Zeit wird die nematizide Wirkung an Hand der Gallenbildung in % bestimmt. Dabei bedeutet 100 %, dass keine Gallen gefunden wurden; 0 % bedeutet, dass die Zahl der Gallen an den behandelten Pflanzen der der unbehandelten Kontrolle entspricht.

chromatographic logP [3]	SMILES	mortality at 500 g/ha [1] [%]	mortality at 500 g/ha [2] [%]	other results
	Cc1cc(C(=O)O)nn1-c1nc(Cl)c(-c2ccccc2Cl)c(NC(C)C)n1 [X-2, 1-[4-Chlor-5-(2-chlorphenyl)-6-(isopropylamino)pyrimidin-2-yl]-5-methyl-1H-pyrazol-3-carbonsäure]	≥ 80	≥ 80	
	Cc1cc(C(=O)O)nn1-c1nc(Cl)c(-c2ccccc2)c(NC(C)C)n1 [X-3]		≥ 80	
2.55	CC(C)Nc1nc([S+](C)[O-])nc(Cl)c1-c1ccccc1Cl (centres unmarked) [4-Chlor-5-(2-chlorphenyl)-6-(isopropylamino)-2-(methylsulfinyl)-pyrimidin]			
4.52	CSc1nc(Cl)c(-c2ccccc2Cl)c(NC(C)C)n1 [4-Chlor-5-(2-chlorphenyl)-6-(isopropylamino)-2-(methylthio)-pyrimidin]			
	Cc1cc(C(=O)NS(C)(=O)=O)nn1-c1nc(Cl)c(-c2c(F)cc(F)cc2F)c(NC(C)C)n1 [I-6]	≥ 80	≥ 80	
	CC(C)Nc1nc(-n2ccc(C(=O)NS(C)(=O)=O)n2)nc(Cl)c1-c1ccccc1Cl [I-2, 1-[4-Chlor-5-(2-chlorphenyl)-6-(isopropylamino)pyrimidin-2-yl]-N-(methylsulfonyl)-1H-pyrazol-3-carboxamid]	≥ 80	≥ 80	Wirkungsgrad [4]: ≥ 70%; Wirkungsgrad [5]: ≥ 70%
	CC(C)Nc1nc(-n2ccc(C(=O)O)n2)nc(Cl)c1-c1ccccc1Cl [X-1, 1-[4-Chlor-5-(2-chlorphenyl)-6-(isopropylamino)pyrimidin-2-yl]-1H-pyrazol-3-carbonsäure]	≥ 80	≥ 80	
	Cc1cc(C(=O)O)nn1-c1nc(Cl)c(-c2c(F)cc(F)cc2F)c(NC(C)C)n1 [X-5]	≥ 80	≥ 80	
	Cc1cc(C(=O)NS(C)(=O)=O)nn1-c1nc(Cl)c(-c2ccccc2)c(NC(C)C)n1 [I-4]		≥ 80	
4.52	CSc1nc(Cl)c(-c2ccccc2Cl)c(Cl)n1 [4,6-Dichlor-5-(2-chlorphenyl)-2-(methylthio)pyrimidin]			
	Cc1cc(C(=O)NS(C)(=O)=O)nn1-c1nc(Cl)c(-c2ccccc2Cl)c(NC(C)C)n1 [I-3, 1-[4-Chlor-5-(2-chlorphenyl)-6-(isopropylamino)pyrimidin-2-yl]-5-methyl-N-(methylsulfonyl)-1H-pyrazol-3-carboxamid]	≥ 80	≥ 80	Wirkungsgrad [4]: ≥ 70%; Wirkungsgrad [5]: ≥ 70%; Wirkung [6]: ≥ 80%
2.96	CC(C)Nc1nc(S(C)(=O)=O)nc(Cl)c1-c1ccccc1Cl [II-1, 4-Chlor-5-(2-chlorphenyl)-6-isopropylamino-2-methylsulfonyl-pyrimidin]			
